Test results from patent US20240398757A1 (COCRYSTAL PHARMA, INC., priority 2022, published 2024).

Molecular target: T1, SARS2 protease (Severe acute respiratory syndrome coronavirus 2, UniProt P0DTD1)
T1 construct: SARS2 protease was added to a final concentration of 30 nM
Assay: SARS-CoV-2 protease inhibition assay (SARS2 FRET protease assay)
Format: biochemical
Conditions: IC50 (μM), SARS2 protease 30 nM, peptide substrate 1.3 μM, 120 minutes at 37° C., compounds 20 μM to 0.075 nM

| Structure (SMILES) | IC50 [nM] |
| --- | --- |
| CCCC[C@H](NC(=O)O[C@H](c1ccccc1)C(F)(F)c1cccc(Cl)c1)C(=O)N[C@@H](C[C@@H]1CCNC1=O)C(O)S(=O)(=O)O (stereo partly shown) [Compound A111] | 2.8 |
| CCCC[C@H](NC(=O)OC(c1ccccc1)C(F)(F)c1cccc(Cl)c1)C(=O)N[C@H](C=O)CC1CC(C)NC1=O (stereo partly shown) [Compound A112] | 179 |
| CCCC(=O)OC([C@H](C[C@@H]1CCNC1=O)NC(=O)[C@H](CC1CCCCC1)NC(=O)OC(c1ccccc1)C(F)(F)c1cccc(Cl)c1)S(=O)(=O)O (stereo partly shown) [Compound A113] | 241 |
| CCCC[C@H](NC(=O)OC(c1ccccc1)C(F)(F)c1cccc(Cl)c1)C(=O)N[C@H](C=O)C[C@@H]1CCCNC1=O (stereo partly shown) [Compound A114] | 0.3 |
| CCCC[C@H](NC(=O)O[C@@H](c1ccccc1)C(F)(F)c1cccc(Cl)c1)C(=O)N[C@@H](C[C@@H]1CCNC1=O)C(=O)C(=O)NC1CC1 [Compound A115] | 805 |
| O=C(N[C@@H](CC1CCCCC1)C(=O)N[C@@H](C[C@@H]1CCNC1=O)C(=O)C(=O)NC1CC1)O[C@@H](c1ccccc1)C(F)(F)c1cccc(Cl)c1 [Compound A116] | 28.9 |
| CCNC(=O)C(=O)[C@H](C[C@@H]1CCNC1=O)NC(=O)[C@H](CC1CCCC1)NC(=O)OC(c1ccccc1)C(F)(F)c1cccc(Cl)c1 (stereo partly drawn) [Compound A117, 2-(3-chlorophenyl)-2,2-difluoro-1-phenylethyl ((S)-3-cyclopentyl-1-(((S)-4-(ethylamino)-3,4-dioxo-1-((S)-2-oxopyrrolidin-3-yl)butan-2-yl)amino)-1-oxopropan-2-yl)carbamate] | 2.8 |
| CCNC(=O)C(=O)[C@H](C[C@@H]1CCNC1=O)NC(=O)[C@H](CC1CCCCC1)NC(=O)O[C@@H](c1ccccc1)C(F)(F)c1cccc(Cl)c1 [Compound A120] | < 0.01 |
| CCCC[C@H](NC(=O)O[C@@H](c1ccccc1)C(F)(F)c1cccc(Cl)c1)C(=O)N[C@@H](C[C@@H]1CCNC1=O)C(O)S(=O)(=O)O (stereo partly shown) [Compound A121] | 18 |
| CCCC[C@H](NC(=O)O[C@@H](c1ccccc1)C(C)(C)c1cccc(Cl)c1)C(=O)N[C@H](C=O)C[C@H]1CCNC1=O [Compound A122, (S)-2-(3-Chlorophenyl)-2-methyl-1-phenylpropyl ((S)-1-oxo-1-(((S)-1-oxo-3-((R)-2-oxopyrrolidin-3-yl)propan-2-yl)amino)hexan-2-yl)carbamate] | < 0.1 |
| CCCC[C@H](NC(=O)O[C@H](c1ccccc1)C(C)(C)c1cccc(Cl)c1)C(=O)N[C@H](C=O)C[C@H]1CCNC1=O [Compound A123] | 5300 |
| O=C[C@H](C[C@@H]1CCCNC1=O)NC(=O)[C@H](CC1CCCCC1)NC(=O)OC(c1ccccc1)C(F)(F)c1cccc(Cl)c1 (stereo partly shown) [Compound A124] | 0.1 |
| O=C[C@H](C[C@@H]1CCNC1=O)NC(=O)[C@H](CC1CCCCC1)NC(=O)O[C@@H](c1ccccc1)C(F)(F)c1cccc(Cl)c1 [Compound A125] | 4.2 |
| O=C[C@H](C[C@@H]1CCNC1=O)NC(=O)[C@H](CC1CCCCC1)NC(=O)O[C@@H](c1ccccc1)C(F)(F)c1cccc(F)c1 [Compound A126] | < 0.01 |
| CCCC[C@H](NC(=O)OC(c1ccccc1)C(F)(F)c1cccc(Cl)c1)C(=O)N[C@@H](C[C@@H]1CCCNC1=O)C(=O)C(=O)NC1CC1 (stereo partly shown) [Compound A127] | 10 |
| CCOC(=O)/C=C/[C@H](C[C@@H]1CCNC1=O)NC(=O)[C@H](CC(C)C)NC(=O)OC(c1ccccc1)C(F)(F)c1cccc(Cl)c1 (stereo partly shown) [Compound A128] | 3950 |
| O=C(N[C@@H](CC1CCCCC1)C(=O)N[C@@H](C[C@@H]1CCCNC1=O)C(=O)C(=O)NC1CC1)OC(c1ccccc1)C(F)(F)c1cccc(Cl)c1 (stereo partly shown) [Compound A129] | 130 |
| CCNC(=O)C(=O)[C@H](C[C@@H]1CCNC1=O)NC(=O)[C@H](CC1CCCCC1)NC(=O)OC(c1ccccc1)C(C)(C)c1cccc(F)c1 (stereo partly shown) [Compound A130] | 88 |
| CCNC(=O)C(=O)[C@H](C[C@@H]1CCNC1=O)NC(=O)[C@H](CC1CC1)NC(=O)OC(c1ccccc1)C(F)(F)c1cccc(Cl)c1 (stereo partly shown) [Compound A131] | 0.2 |
| CCNC(=O)C(=O)[C@H](C[C@@H]1CCNC1=O)NC(=O)[C@H](CC1CCC1)NC(=O)OC(c1ccccc1)C(F)(F)c1cccc(Cl)c1 (stereo partly shown) [Compound A132] | 66 |
| O=C(N[C@@H](CC1CCCCC1)C(=O)N[C@@H](C[C@@H]1CCNC1=O)C(O)S(=O)(=O)O)O[C@@H](c1ccccc1)C(F)(F)c1cccc(F)c1 (stereo partly shown) [Compound A133] | 2 |
| CCNC(=O)C(=O)[C@H](C[C@@H]1CCNC1=O)NC(=O)[C@H](CC1CCCCC1)NC(=O)O[C@H](c1ccccc1)C(F)(F)c1cccc(Cl)c1 [Compound A134] | 1180 |
| O=C(N[C@@H](CC1CCCCC1)C(=O)N[C@@H](C[C@@H]1CCNC1=O)C(O)S(=O)(=O)O)O[C@H](c1ccccc1)C(F)(F)c1cccc(Cl)c1 (stereo partly shown) [Compound A135] | 2.2 |
| CCCC[C@H](NC(=O)OC(c1ccccc1)C1(c2cccc(Cl)c2)CC1)C(=O)N[C@@H](C[C@@H]1CCNC1=O)C(=O)C(=O)NC1CC1 (stereo partly shown) [Compound A136] | 83 |
| CCCC[C@H](NC(=O)O[C@H](c1ccccc1)C(F)(F)c1cccc(Cl)c1)C(=O)N[C@@H](C[C@@H]1CCNC1=O)C(=O)C(=O)NC1CC1 [Compound A137] | 0.5 |

| Structure (SMILES) | IC50 [nM] |
| --- | --- |
| CCCC[C@H](NC(=O)OC(c1ccccc1)C(F)(F)c1cccc(Cl)c1)C(=O)N[C@@H](C[C@@H]1CCNC1=O)C(=O)C(=O)NCC (stereo partly shown) [Compound A138] | 28 |
| CC(C)C[C@H](NC(=O)O[C@@H](c1cccc(Cl)c1)C(C)(C)c1cccc(Cl)c1)C(=O)N[C@H](C=O)C[C@@H]1CCNC1=O [Compound A139] | 3 |
| CC(C)C[C@H](NC(=O)O[C@H](c1cccc(Cl)c1)C(C)(C)c1cccc(Cl)c1)C(=O)N[C@H](C=O)C[C@@H]1CCNC1=O [Compound A140] | 45 |
| O=C(N[C@@H](CC1CCCCC1)C(=O)N[C@@H](C[C@@H]1CCNC1=O)C(O)S(=O)(=O)O)O[C@@H](c1ccccc1)C(F)(F)c1cccc(Cl)c1 (stereo partly drawn) [Compound A141, sodium (2S)-2-((S)-2-((((S)-2-(3-chlorophenyl)-2,2-difluoro-1-phenylethoxy)carbonyl)amino)-3-cyclohexylpropanamido)-1-hydroxy-3-((S)-2-oxopyrrolidin-3-yl)propane-1-sulfonate] | 55 |
| CC(C)C[C@H](NC(=O)O[C@@H](c1cccc(Cl)c1)C(C)(C)c1cccc(Cl)c1)C(=O)N[C@@H](C[C@@H]1CCNC1=O)C(=O)C(=O)NC1CC1 [Compound A142] | 32 |
| CCCC[C@H](NC(=O)O[C@@H](c1ccccc1)C(F)(F)c1cccc(F)c1)C(=O)N[C@H](C=O)C[C@@H]1CCNC1=O [Compound A143] | 4 |
| CCCC[C@H](NC(=O)O[C@H](c1ccccc1)C(F)(F)c1cccc(F)c1)C(=O)N[C@H](C=O)C[C@@H]1CCNC1=O [Compound A144] | 23 |
| CCC[C@H](NC(=O)OC(c1ccccc1)C(F)(F)c1cccc(Cl)c1)C(=O)N[C@@H](C[C@@H]1CCNC1=O)C(=O)C(=O)NCC (stereo partly shown) [Compound A145] | 150 |
| CCCC[C@H](NC(=O)O[C@H](c1ccccc1)C(F)(F)c1cccc(Cl)c1)C(=O)N[C@H](C=O)C[C@@H]1CCCNC1=O [Compound A146] | 38 |
| CC(C)C[C@H](NC(=O)O[C@H](c1cccc(Cl)c1)C(C)(C)c1cccc(Cl)c1)C(=O)N[C@@H](C[C@@H]1CCNC1=O)C(=O)C(=O)NC1CC1 [Compound A147] | 558 |
| CCC[C@H](NC(=O)O[C@@H](c1ccc(F)cc1)C(F)(F)c1cccc(Cl)c1)C(=O)N[C@H](C=O)C[C@@H]1CCNC1=O [Compound A148] | 7 |
| CC(C)C[C@H](NC(=O)O[C@H](c1ccc(F)cc1)C(F)(F)c1cccc(Cl)c1)C(=O)N[C@H](C=O)C[C@@H]1CCNC1=O [Compound A149] | 0.1 |
| CCCC[C@H](NC(=O)O[C@@H](c1ccccc1)C(F)(F)c1cccc(Cl)c1)C(=O)N[C@H](C=O)C[C@@H]1CCCNC1=O [Compound A150] | < 0.1 |
| CCCCC[C@H](NC(=O)O[C@@H](c1ccccc1)C(F)(F)c1cccc(Cl)c1)C(=O)N[C@H](C=O)C[C@@H]1CCNC1=O [Compound A151] | 0.2 |
| CC(C)C[C@H](NC(=O)O[C@H](c1ccccc1)C(F)(F)c1cccc(F)c1)C(=O)N[C@H](C=O)C[C@@H]1CCNC1=O [Compound A152] | 7.8 |
| CCC[C@H](NC(=O)O[C@@H](c1ccccc1)C(F)(F)c1cccc(Cl)c1)C(=O)N[C@H](C=O)C[C@@H]1CCNC1=O [Compound A153] | 0.6 |
| O=C[C@H](C[C@@H]1CCCNC1=O)NC(=O)[C@H](CC1CCCCC1)NC(=O)O[C@@H](c1ccccc1)C(F)(F)c1cccc(Cl)c1 [Compound A154] | 334 |
| O=C[C@H](C[C@@H]1CCCNC1=O)NC(=O)[C@H](CC1CCCCC1)NC(=O)O[C@H](c1ccccc1)C(F)(F)c1cccc(Cl)c1 [Compound A155] | 611 |
| O=C[C@H](C[C@@H]1CCNC1=O)NC(=O)[C@H](CC1CC1)NC(=O)O[C@@H](c1ccccc1)C(F)(F)c1cccc(Cl)c1 [Compound A156] | 289 |
| O=C[C@H](C[C@@H]1CCNC1=O)NC(=O)[C@H](CC1CC1)NC(=O)O[C@H](c1ccccc1)C(F)(F)c1cccc(Cl)c1 [Compound A157] | 0.2 |
| CC(C)C[C@H](NC(=O)O[C@@H](c1ccccc1)C(C)(C)c1cccc(Cl)c1)C(=O)N[C@H](C=O)C[C@@H]1CCCNC1=O [Compound A158] | 2 |
| CCCC[C@H](NC(=O)O[C@@H](c1ccc(F)cc1)C(F)(F)c1cccc(Cl)c1)C(=O)N[C@H](C=O)C[C@@H]1CCNC1=O [Compound A159] | 3 |
| CCCC[C@H](NC(=O)O[C@H](c1ccc(F)cc1)C(F)(F)c1cccc(Cl)c1)C(=O)N[C@H](C=O)C[C@@H]1CCNC1=O [Compound A160] | 470 |
| O=C[C@H](C[C@H]1CCNC1=O)NC(=O)[C@H](CC1CCCCC1)NC(=O)OC(c1ccccc1)C(F)(F)c1cccc(Cl)c1 (stereo partly shown) [Compound A161] | 582 |
